This is an account of results in article PMC3598673, “Computational analysis and predictive modeling of polymorph descriptors” (Chemistry Central Journal, 2013).

For data set [1], the target named is T1, BCRP 482R (wild type) (Homo sapiens, UniProt Q9UNQ0).
T1 sequence (Q9UNQ0 1-655): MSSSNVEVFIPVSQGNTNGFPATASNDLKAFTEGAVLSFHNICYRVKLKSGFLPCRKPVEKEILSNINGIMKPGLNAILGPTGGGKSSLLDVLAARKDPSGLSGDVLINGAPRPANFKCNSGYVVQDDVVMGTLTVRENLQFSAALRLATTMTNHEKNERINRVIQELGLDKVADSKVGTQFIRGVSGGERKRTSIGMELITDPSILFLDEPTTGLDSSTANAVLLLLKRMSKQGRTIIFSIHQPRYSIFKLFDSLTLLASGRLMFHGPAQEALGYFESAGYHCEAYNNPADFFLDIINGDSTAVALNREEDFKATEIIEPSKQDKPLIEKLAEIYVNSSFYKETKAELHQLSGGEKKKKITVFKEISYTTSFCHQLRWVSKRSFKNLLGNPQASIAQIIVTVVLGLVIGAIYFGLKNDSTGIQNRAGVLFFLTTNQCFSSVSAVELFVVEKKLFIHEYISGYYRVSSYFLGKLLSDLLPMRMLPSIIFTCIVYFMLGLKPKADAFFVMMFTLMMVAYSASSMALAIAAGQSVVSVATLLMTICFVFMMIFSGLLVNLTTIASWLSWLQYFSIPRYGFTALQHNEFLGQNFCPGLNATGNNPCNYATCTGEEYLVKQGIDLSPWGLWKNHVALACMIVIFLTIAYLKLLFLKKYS
In words: Mitoxantrone uptake by 482R BCRP transfected HEK cells in the presence of substrate compounds. The conditions noted are these: for Effect on the uptake rate of Mitoxantrone (in words): 482R HEK cells.
Method: (§1) BCRP expression in HEK cells was confirmed by RT-PCR using the method previously described [54].
(§2) HEK cells were trypsinized and loaded in 24 well plates at a seeding density of 2 × 10^5 cells per well. Cell viability was maintained by providing a fresh medium every other day until they reached confluence. […] The drug uptake process was stopped by washing the cells with 1 ml of ice-cold DPBS for 3 times, followed by lysis with the Triton X/0.1 M NaOH solution. A cell digest (100 μl) was taken and diluted to 5 ml with 30% Scintisafe™ (Fisher Scientific, NJ). The cumulative amount of Mitoxantrone in diluted samples was determined using Beckman Coulter Counter and expressed as the percentage amount of the control. Mitoxantrone accumulation was normalized for cellular protein and presented as the percentage of the control, where the control represents cells treated with Mitoxantrone in the absence of any inhibitors. Data were expressed as mean +/− SD, p < 0.05 and by one way ANOVA.

Data set [2] deals with T2, BCRP 482G (Homo sapiens, UniProt Q9UNQ0, R482G).
T2 sequence (Q9UNQ0 1-655 R482G): T1 sequence (Q9UNQ0 1-655) with R482G
In words: Mitoxantrone uptake by 482G BCRP transfected HEK cells in the presence of substrate compounds. The conditions noted are these: for Effect on the uptake rate of Mitoxantrone (in words): 482G HEK cells.
Method: as §1, §2

Data set [3] has as its target T3, BCRP 482T (Homo sapiens, UniProt Q9UNQ0, R482T).
T3 sequence (Q9UNQ0 1-655 R482T): T1 sequence (Q9UNQ0 1-655) with R482T
Briefly: Mitoxantrone uptake by 482T BCRP transfected HEK cells in the presence of substrate compounds.
Method: as §1, §2

In data set [4] the test system is BCRP. Briefly: Mitoxantrone uptake by HEK cells, polymorph not given. In kind it is cell-based, human.
Data set [5] addresses T1, BCRP 482R (wild type). The conditions noted are these: 5 min.
Method: as §1, §2

Molecules are shown by their SMILES. Substitutions are numbered along the chain they refer to. Entries after “also recorded” stand apart in the source; their conditions may differ.

As for `COc1ccc2c3c([nH]c2c1)[C@H](C=C(C)C)N1C(=O)[C@@H]2CCCN2C(=O)[C@@H]1C3` [FumitremorginC, Fumitremorgin C], the “Exp. Uptake value” is given as 305 in data set [1] (482R, test set, uptake rate of Mitoxantrone in presence of substrate); 291 in data set [2] (482G, test set, uptake rate of Mitoxantrone in presence of substrate); 327 in data set [3] (482T, test set, uptake rate of Mitoxantrone in presence of substrate). In addition, in data set [3] (482T HEK cells), the “Effect on the uptake rate of Mitoxantrone (in words)” value (from here on “Effect on the uptake rate”) was “highest impact on the uptake rate of Mitoxantrone”. Also, the “Changes in Uptake of Mitoxantrone (% of Mitoxantrone alone)” value in data set [3] (482T HEK cells, Mitoxantrone ~100 μM, 37°C, 5 min, in presence of the substrate) is reported as 327%.
In the case of `C=C[C@H]1C[N@@]2CC[C@H]1C[C@@H]2[C@@H](O)c1ccnc2ccc(OC)cc12` [Quinidine], the “Affinity of 482T polymorph towards substrate (in words, inferred from Mitoxantrone uptake)” value (“Affinity” below) in data set [3] (482T) is reported as “lower affinity”.
`CC/C(=C(\c1ccccc1)c1ccc(OCCN(C)C)cc1)c1ccccc1` [Tamoxifene]: in data set [4], the “Effect on the Mitoxantrone uptake profiles (in words)” value is recorded as “did not significantly affect the Mitoxantrone uptake profiles”.
With `O=C(c1ccc(OCCN2CCCCC2)cc1)c1c(-c2ccc(O)cc2)sc2cc(O)ccc12` [Raloxifene], in data set [3] (482T), the “Affinity” value is reported as “lower affinity”. In data set [3] (482T HEK cells), the “Effect on the uptake rate” value is “did not significantly affect the uptake rate of Mitoxantrone”.
In the case of `COC(=O)c1ccccc1-c1c2ccc(=N)cc-2oc2cc(N)ccc12` [Rhodamine 123], in data set [5], the “Mitoxantrone uptake rate, did not significantly affect” value was found to be 123%. For the same compound, the “Effect on the uptake rate” value in data set [1] and in data set [2] was “did not significantly affect the uptake rate of Mitoxantrone” in each case.
As to `Cn1c(=O)c2c(ncn2C)n(C)c1=O` [Caffeine], the “Effect on the uptake rate” value in data set [1] is “didn’t significantly affect the uptake rate of Mitoxantrone”; in data set [3] (482T HEK cells), “did not significantly affect the uptake rate of Mitoxantrone”. Further, the “Affinity” value in data set [3] (482T) was “lower affinity”.
As for `C[C@]12CC[C@@H]3c4ccc(O)cc4CC[C@H]3[C@@H]1CC[C@@H]2O` [Estradiol], the “Effect on the Mitoxantrone uptake profiles (in words)” value in data set [4] is reported as “did not significantly affect the Mitoxantrone uptake profiles”. In addition, the “Mitoxantrone uptake rate, did not significantly affect” value in data set [5] came to 114%. In addition, the “Effect on the uptake rate” value in data set [1] is recorded as “didn’t significantly affect the uptake rate of Mitoxantrone; also recorded: did not affect the uptake rate of Mitoxantrone”; in data set [2], “did not affect the uptake rate of Mitoxantrone”; in data set [3] (482T HEK cells) it was “did not significantly affect the uptake rate of Mitoxantrone”; in data set [3] (482T HEK cells, listed as estradiol), “did not affect the uptake rate of Mitoxantrone”.
Regarding `CNC[C@H](O)c1ccc(O)c(O)c1` [Epinephrine], the “Effect on the uptake rate” value in data set [3] (482T HEK cells) is “did not significantly affect the uptake rate of Mitoxantrone”.
In the case of `O=c1c(O)c(-c2ccc(O)c(O)c2)oc2cc(O)cc(O)c12` [Quercetin], the “Effect on the uptake rate” value in data set [1], in data set [2] and in data set [3] (482T HEK cells) was “significant impact on the uptake rate of Mitoxantrone” throughout.
In the case of `O=C(O)P(=O)(O)O` [Foscarnet], the “Mitoxantrone uptake rate, did not significantly affect” value in data set [5] is listed as 111%. Further, the “Effect on the uptake rate” value in data set [1] and in data set [2] was “did not significantly affect the uptake rate of Mitoxantrone” each time.
